In test [1] the target is T1, human Keap1 Kelch domain (Homo sapiens, UniProt Q14145).
T1 construct: human Keap1 Kelch domain (residue 321-609, UniProt Q14145); made in house; host or cells: Escherichia coli BL21 (DE3) pLysS, pRSET A vector
Description: Fluorescence polarization (FP) competition assay, Cy5-Nrf2 peptide probe. The class given is binding. The conditions noted are these: heterologous competition FP; Keap1 Kelch 14 nM, Cy5-Nrf2 probe 3 nM, 4% DMSO; mean ± SEM. In short, it runs like this: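 Ki values came from FP competition of 12 compound concentrations (2-fold, duplicate) against 14 nM Keap1 Kelch and 3 nM Cy5-Nrf2 probe. Buffer was HEPES pH 7.4 with 4% DMSO; readings were taken at 635/670 nm after 10-15 min at room temperature. IC50 was converted to Ki using probe Kd and concentrations.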

For test [2], the target named is T2, human Keap1 Kelch (Homo sapiens, UniProt Q14145).
T2 construct: human Keap1 Kelch domain (residue 321-609, UniProt Q14145); made in house; host or cells: Escherichia coli BL21 (DE3) pLysS, pRSET A vector
T2 sequence (Q14145 321-609): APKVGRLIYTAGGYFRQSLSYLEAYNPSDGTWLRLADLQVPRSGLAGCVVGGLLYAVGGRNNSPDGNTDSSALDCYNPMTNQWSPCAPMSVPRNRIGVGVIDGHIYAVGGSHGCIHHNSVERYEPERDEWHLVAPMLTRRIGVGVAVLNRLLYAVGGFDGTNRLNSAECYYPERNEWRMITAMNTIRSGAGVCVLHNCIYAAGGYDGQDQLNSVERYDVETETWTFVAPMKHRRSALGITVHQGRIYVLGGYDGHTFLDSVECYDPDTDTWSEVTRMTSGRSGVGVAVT
Briefly: Surface plasmon resonance (SPR), immobilized Keap1 Kelch domain. It is filed as binding. The settings on record: 25 °C, Rmax constrained to 15 RU (theoretical max). From the text: 768 fragments from the commercial available (Enamine) DSI-poised library were screened against the human Keap1 Kelch domain using X-ray crystallography. After data collection and processing (example 3), several crystal structures with high-resolution (1.0-2.1 Å) were identified showing fragments bound to the Keap1 binding pocket. […] To confirm XCF #0252 as a hit and determine its affinity to human Keap1 Kelch, this fragment was resynthesized (Scheme 1) and tested by surface plasmon resonance (SPR). In SPR, a dose-dependent activity was observed and an affinity of Kd=0.6 mM was measured (FIG. 2B).
SPR measurements were performed at 25° C. using a Pioneer FE FE instrument (Sartorius). The Keap1 Kelch domain was covalently immobilized on the biosensor chip surface by amine coupling to a level of 2150 RU, using a 10 mM NaOAc pH 5 immobilization buffer. The 1×HBSTET buffer supplemented with 4% DMSO was used as running buffer for the experiments. Microcalibration was performed for all SPR experiments to adjust for DMSO bulk effects (low limit of 3% and a high limit of 4%). The compound was injected in a concentration series of twofold serial dilutions ([…]-1000 μM) using standard injections at a 30 μL/min flow rate. The data were analyzed using Qdat Data Analysis Tool version 2.6.3.0 (Sartorius). […]

T1 sequence (Q14145 321-609): as above

Regarding `CC(C)(C(=O)O)C(c1ccc2c(c1)OCO2)c1ccc2ccc(OCC(=O)NC3CCCCCC3)cc2c1` (centres unmarked) [7d, 3-(benzo[d][1,3]dioxol-5-yl)-3-(7-(2-(cycloheptylamino)-2-oxoethoxy)naphthalen-2-yl)-2,2-dimethylpropanoic acid], in test [1], the Ki was 0.003 ± 0.001 µM.

With `O=C(O)CC(c1ccc2c(c1)OCO2)c1ccc2ncc(OCC(=O)NC3CCCCCC3)cc2c1` (centres unmarked) [9a, 3-(benzo[d][1,3]dioxol-5-yl)-3-(3-(2-(cycloheptylamino)-2-oxoethoxy)quinolin-6-yl)propanoic acid], in test [1], the Ki amounted to 0.522 ± 0.067 µM.

Consider `O=C(O)CC(c1ccc2c(c1)OCO2)c1ccc2ccc(OCC(=O)NC3CCCCCC3)nc2c1` (centres unmarked) [9b, 3-(benzo[d][1,3]dioxol-5-yl)-3-(2-(2-(cycloheptylamino)-2-oxoethoxy)quinolin-7-yl)propanoic acid], for which the Ki in test [1] amounted to 0.083 ± 0.037 µM.

For `O=C(O)CC(c1ccc2c(c1)OCO2)c1cnc2ccc(OCC(=O)NC3CCCCCC3)cc2c1` (centres unmarked) [9c, 3-(benzo[d][1,3]dioxol-5-yl)-3-(6-(2-(cycloheptylamino)-2-oxoethoxy)quinolin-3-yl)propanoic acid], the Ki in test [1] is 0.064 µM.

In test [2], `O=C(COc1ccccc1)NC1CCCCC1` [XCF #0252, N-Cyclohexyl-2-phenoxyacetamide] registered a Kd of 600000 nM.

Values taken from patent US20260193170A1 (University of Copenhagen, priority 2022, published 2026).
